Source: paper PMC2917628 (FEBS letters, 2010)
Where a name gives a salt, the structure may show the parent alone.

Assays:
[1] = tested on: NIH 3T3 cells; details: ref [9]; cited from earlier work
[2] = tested on: LNCaP cells expressing Abi1 Y213F; assay: flow cytometric uptake of Alexa Fluor 647; type: cell-based; details: 25 μM Alexa Fluor 647 hydrazide, 2 hours
[3] = tested on: macropinocytic uptake of pathogenic bacteria; details: ref [10],[11]; cited from earlier work
[4] = tested on: macropinocytic uptake and membrane ruffles; details: ref [21]; cited from earlier work
[5] = tested on: Rac1 activation; details: ref [25]; cited from earlier work

O=c1cc(N2CCOCC2)oc2c(-c3ccccc3)cccc12 [LY294002]
macropinocytic uptake of Alexa Fluor 594 [1]: inhibit macropinocytic uptake

C/C1=C/C(=O)O[C@@H]2C[C@@H](CC[C@H](C)/C=C\C=C\CC1)O[C@@](O)([C@@H]1CSC(=O)N1)C2 [Latrunculin A, latrunculin A]
macropinocytic uptake of Alexa Fluor 647 with latrunculin A, Abi1 Y213F cells ([2]; 0.2 μM latrunculin A, PDGF not added): significant decrease

Cc1ccc(NC(=O)c2ccc(CN3CCN(C)CC3)cc2)cc1Nc1nccc(-c2cccnc2)n1 [STI-571, Imatinib mesylate]
macropinocytic uptake of pathogenic bacteria [3]: inhibits macropinocytic uptake of pathogenic bacteria

COC[C@H]1OC(=O)c2coc3c2[C@@]1(C)C1=C(C3=O)[C@@H]2CCC(=O)[C@@]2(C)C[C@H]1OC(C)=O [wortmannin]
macropinocytic uptake of Alexa Fluor 594 [1]: inhibit macropinocytic uptake | macropinocytic uptake and formation of membrane ruffles [4]: inhibits macropinocytic uptake and the formation of membrane ruffles but not in all cells

B1: PDGF: PDGF BB (cat # 3201), Sigma-Aldrich (protein, UniProt P01127 82-190, looked up)
Platelet-derived growth …: SLGSLTIAEPAMIAECKTRTEVFEISRRLIDRTNANFLVWPPCVEVQRCSGCCNNRNVQCRPTQVQLRPVQVRKIEIVRKKPIFKKATVTLEDHLACKCETVAAARPVT
modifications: Platelet-derived growth factor subunit B homodimer
PDGF response of Alexa Fluor 647 uptake, Abi1 Y213F cells ([2]; 10 ng/ml PDGF): demonstrated PDGF response | Rac1 activation following PDGF stimulation [5]: enhanced Rac1 activation
